Measured values published in ChEMBL document CHEMBL5154935, “Design, Synthesis, and Biological Evaluation of Novel Evodiamine Derivatives as Potential Antihepatocellular Carcinoma Agents” (J Med Chem, 2022).

Tests used:
[1] = Antiproliferative activity against human L02 cells treated for 72 hrs by MTT assay; format: toxicity, cell-based
[2] = target: T1, DNA topoisomerase 1 (Homo sapiens) (UniProt P11387); assay: Inhibition of Top1 (unknown origin) assessed as inhibition of relaxation of supercoiled pBR322 plasmid DNA at 50 uM incubated for 25 mins by ethidium bromide staining based agarose gel electrophoresis analysis relative to control
T1 sequence (whole entry): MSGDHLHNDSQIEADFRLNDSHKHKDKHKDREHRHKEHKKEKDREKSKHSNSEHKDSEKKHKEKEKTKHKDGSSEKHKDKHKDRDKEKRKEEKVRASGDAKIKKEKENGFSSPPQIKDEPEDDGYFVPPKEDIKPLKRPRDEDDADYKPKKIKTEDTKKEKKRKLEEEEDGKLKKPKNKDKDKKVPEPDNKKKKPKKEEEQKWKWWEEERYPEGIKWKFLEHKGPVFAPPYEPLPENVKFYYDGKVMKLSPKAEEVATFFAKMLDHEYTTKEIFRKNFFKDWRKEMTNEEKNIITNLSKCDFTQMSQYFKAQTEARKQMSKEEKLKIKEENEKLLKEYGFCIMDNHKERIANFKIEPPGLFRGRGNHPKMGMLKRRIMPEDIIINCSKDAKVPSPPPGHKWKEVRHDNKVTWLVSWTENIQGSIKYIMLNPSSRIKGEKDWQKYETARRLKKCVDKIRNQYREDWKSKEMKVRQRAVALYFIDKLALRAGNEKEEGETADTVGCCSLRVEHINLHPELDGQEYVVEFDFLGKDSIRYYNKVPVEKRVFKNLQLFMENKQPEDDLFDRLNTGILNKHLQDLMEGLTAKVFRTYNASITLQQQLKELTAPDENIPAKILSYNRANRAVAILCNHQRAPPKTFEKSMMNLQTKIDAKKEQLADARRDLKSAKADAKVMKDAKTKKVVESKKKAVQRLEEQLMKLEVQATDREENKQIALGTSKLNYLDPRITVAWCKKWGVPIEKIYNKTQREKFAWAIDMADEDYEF

HepG2 = assay: Antiproliferative activity against human HepG2 cells treated for 72 hrs by MTT assay; format: functional, cell-based; settings: HepG2, 72 h
HCCLM9 = assay: Antiproliferative activity against human HCCLM9 cells treated for 72 hrs by MTT assay; format: functional, cell-based; settings: HCCLM9, 72 h
SMMC-7721 = assay: Antiproliferative activity against human SMMC-7721 cells treated for 72 hrs by MTT assay; format: functional, cell-based; settings: SMMC-7721, 72 h
[3] = target: DNA topoisomerase 2-alpha (Homo sapiens) (UniProt P11388); assay: Inhibition of human Top2-alpha expressed in baculovirus assessed as inhibition of relaxation of supercoiled pBR322 plasmid DNA at 100 uM incubated for 30 mins in presence of ATP by ethidium bromide staining based agarose gel electrophoresis analysis relative to control
Huh-7 = assay: Antiproliferative activity against human Huh-7 cells treated for 72 hrs by MTT assay; format: functional, cell-based; settings: Huh-7, 72 h
SK-HEP1 = assay: Antiproliferative activity against human SK-HEP1 cells treated for 72 hrs by MTT assay; format: functional, cell-based; settings: SK-HEP1, 72 h
[4] = target: T1, DNA topoisomerase 1 (Homo sapiens); assay: Inhibition of Top1 (unknown origin) assessed as inhibition of relaxation of supercoiled pBR322 plasmid DNA at 12.5 uM incubated for 25 mins by ethidium bromide staining based agarose gel electrophoresis analysis relative to control

DNA topoisomerase 2-alpha (Homo sapiens), sequence (P11388 whole entry): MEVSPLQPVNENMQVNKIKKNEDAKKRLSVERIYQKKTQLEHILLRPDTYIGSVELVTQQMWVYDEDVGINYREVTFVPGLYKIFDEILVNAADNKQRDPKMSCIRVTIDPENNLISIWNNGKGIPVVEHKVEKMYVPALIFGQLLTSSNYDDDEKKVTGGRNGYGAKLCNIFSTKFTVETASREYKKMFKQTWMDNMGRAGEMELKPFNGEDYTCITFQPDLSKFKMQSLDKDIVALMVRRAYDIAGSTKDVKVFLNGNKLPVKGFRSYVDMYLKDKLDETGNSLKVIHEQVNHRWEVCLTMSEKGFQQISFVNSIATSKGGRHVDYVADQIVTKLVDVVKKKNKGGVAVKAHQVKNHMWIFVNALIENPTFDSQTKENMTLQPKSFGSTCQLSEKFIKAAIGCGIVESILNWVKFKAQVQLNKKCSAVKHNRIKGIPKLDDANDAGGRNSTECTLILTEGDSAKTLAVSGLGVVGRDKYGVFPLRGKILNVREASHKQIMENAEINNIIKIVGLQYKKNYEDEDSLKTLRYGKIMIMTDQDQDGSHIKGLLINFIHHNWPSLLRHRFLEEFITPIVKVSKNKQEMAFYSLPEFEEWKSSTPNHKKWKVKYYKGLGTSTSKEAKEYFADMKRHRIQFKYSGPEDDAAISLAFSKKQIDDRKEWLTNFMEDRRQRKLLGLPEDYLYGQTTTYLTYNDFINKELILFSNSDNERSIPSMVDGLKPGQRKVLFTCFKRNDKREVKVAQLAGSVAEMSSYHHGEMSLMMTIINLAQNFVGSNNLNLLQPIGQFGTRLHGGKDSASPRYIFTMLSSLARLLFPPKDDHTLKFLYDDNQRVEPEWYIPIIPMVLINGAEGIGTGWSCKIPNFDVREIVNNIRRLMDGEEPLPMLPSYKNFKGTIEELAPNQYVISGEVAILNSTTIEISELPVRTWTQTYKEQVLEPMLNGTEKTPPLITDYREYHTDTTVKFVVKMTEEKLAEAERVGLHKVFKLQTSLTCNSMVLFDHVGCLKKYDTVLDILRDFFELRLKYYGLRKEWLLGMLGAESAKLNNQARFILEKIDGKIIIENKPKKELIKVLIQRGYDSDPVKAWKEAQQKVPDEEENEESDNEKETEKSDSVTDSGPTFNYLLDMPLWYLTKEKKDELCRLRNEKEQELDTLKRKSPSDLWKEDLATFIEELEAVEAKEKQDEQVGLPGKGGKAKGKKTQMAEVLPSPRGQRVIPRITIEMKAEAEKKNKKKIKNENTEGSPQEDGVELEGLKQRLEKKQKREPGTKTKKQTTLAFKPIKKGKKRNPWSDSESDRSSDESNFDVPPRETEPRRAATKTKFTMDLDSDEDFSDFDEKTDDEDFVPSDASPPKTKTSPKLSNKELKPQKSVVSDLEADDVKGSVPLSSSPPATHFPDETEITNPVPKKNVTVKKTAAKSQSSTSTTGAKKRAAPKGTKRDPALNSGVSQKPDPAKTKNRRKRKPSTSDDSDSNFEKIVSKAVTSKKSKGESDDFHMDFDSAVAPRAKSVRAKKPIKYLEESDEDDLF

| Structure (SMILES) | IC50 at 72 h [1] | inhibition [2] | IC50 (HepG2) | IC50 (HCCLM9) | IC50 (SMMC-7721) | inhibition [3] | IC50 (Huh-7) | IC50 (SK-HEP1) | inhibition [4] |
| --- | --- | --- | --- | --- | --- | --- | --- | --- | --- |
| Cc1ccc2[nH]c3c(c2c1)CCN1C(=O)c2cc(F)cc(F)c2N(c2cccc(F)c2)C31 (stereo unspecified) | 1.4 µM | 83.7% | 0.51 µM | 0.31 µM | 0.49 µM | 67.6% | 0.02 µM | 0.48 µM | 7.29% |
| COc1ccc2[nH]c3c(c2c1)CCN1C(=O)c2cc(F)ccc2N(c2ccc(C)c(F)c2)C31 (stereo unspecified) | > 6 µM | – | 4.62 µM | 6.62 µM | 5.9 µM | – | 6.34 µM | 6.96 µM | – |
| COc1ccc2[nH]c3c(c2c1)CCN1C(=O)c2cc(F)ccc2N(c2ccc(Cl)c(F)c2)C31 (stereo unspecified) | 2.69 µM | – | 6.44 µM | 6.9 µM | 6.92 µM | – | 7.68 µM | 8.9 µM | – |
| COc1ccc2[nH]c3c(c2c1)CCN1C(=O)c2cc(F)ccc2N(c2cc(F)ccc2Cl)C31 (stereo unspecified) | > 6 µM | – | 8.71 µM | > 18 µM | 10.9 µM | – | 11.5 µM | 16.5 µM | – |
| COc1cc(F)cc(N2c3ccc(F)cc3C(=O)N3CCc4c([nH]c5ccc(OC)cc45)C32)c1 (stereo unspecified) | 5.78 µM | – | 2.91 µM | 4.21 µM | 3.98 µM | – | 3.66 µM | 3.15 µM | – |
| O=C1c2cc(F)cc(F)c2N(c2cccc(F)c2)C2c3[nH]c4ccc(Cl)cc4c3CCN12 (stereo unspecified) | 1.37 µM | 90.1% | 0.68 µM | 0.14 µM | 0.77 µM | 65.2% | 0.29 µM | 0.11 µM | 75.4% |
| COc1ccc2[nH]c3c(c2c1)CCN1C(=O)c2cc(F)ccc2N(c2cc(F)ccc2C)C31 (stereo unspecified) | > 6 µM | – | 7.19 µM | > 18 µM | 9.18 µM | – | 11.2 µM | 8.91 µM | – |
| COc1ccc2[nH]c3c(c2c1)CCN1C(=O)c2cc(F)ccc2N(c2cc(F)ccc2Br)C31 (stereo unspecified) | > 6 µM | – | 13.1 µM | > 18 µM | 13 µM | – | 11.4 µM | 14.7 µM | – |
| COc1ccc2[nH]c3c(c2c1)CCN1C(=O)c2cc(F)ccc2N(c2ccc(OC)c(F)c2)C31 (stereo unspecified) | > 6 µM | – | 4.67 µM | 6.04 µM | 4.38 µM | – | 4.32 µM | 4.55 µM | – |
| O=C1c2cc(F)cc(F)c2N(c2cccc(F)c2)C2c3[nH]c4ccccc4c3CCN12 (stereo unspecified) | 0.95 µM | 94.4% | 0.39 µM | 0.28 µM | 0.27 µM | 52.6% | 0.03 µM | 0.27 µM | 27.7% |
| COc1ccc2[nH]c3c(c2c1)CCN1C(=O)c2cc(F)ccc2N(c2cc(F)cc(Br)c2)C31 (stereo unspecified) | 5.97 µM | – | 4.36 µM | 7.75 µM | 5.77 µM | – | – | 4.21 µM | – |
| CC[C@@]1(O)C(=O)OCc2c1cc1n(c2=O)Cc2cc3ccccc3nc2-1 | – | – | – | – | – | 70.2% | – | – | – |
| COc1ccc2[nH]c3c(c2c1)CCN1C(=O)c2cc(F)ccc2N(c2ccc(F)c(F)c2)C31 (stereo unspecified) | 3.46 µM | – | 1.34 µM | 2.67 µM | 1.48 µM | – | 1.19 µM | 1.35 µM | – |
| COc1ccc2[nH]c3c(c2c1)CCN1C(=O)c2cc(F)ccc2N(c2cc(C)cc(F)c2)C31 (stereo unspecified) | > 6 µM | – | 7.3 µM | 12 µM | 8.15 µM | – | 6.99 µM | 7.3 µM | – |
| COc1ccc2[nH]c3c(c2c1)CCN1C(=O)c2cc(F)ccc2N(c2cc(F)cc(Cl)c2)C31 (stereo unspecified) | 5.44 µM | – | 3.92 µM | 7.05 µM | 5.11 µM | – | 4.87 µM | 5.01 µM | – |
| COc1ccc2[nH]c3c(c2c1)CCN1C(=O)c2cc(F)ccc2N(c2cc(F)cc(F)c2)C31 (stereo unspecified) | > 6 µM | – | 2.91 µM | 6.34 µM | 2.97 µM | – | 3.61 µM | 3.97 µM | – |
| COc1ccc2[nH]c3c(c2c1)CCN1C(=O)c2cc(F)ccc2N(c2cc(F)ccc2F)C31 (stereo unspecified) | 4.67 µM | – | 2.8 µM | 3.78 µM | 3.98 µM | – | 7.75 µM | 5.78 µM | – |
| COc1ccc2[nH]c3c(c2c1)CCN1C(=O)c2cc(F)cc(F)c2N(c2cccc(F)c2)C31 (stereo unspecified) | 1.56 µM | 48.4% | 0.27 µM | 39 µM | 0.35 µM | 65.2% | 0.23 µM | 0.27 µM | 20.1% |
| COc1ccc2[nH]c3c(c2c1)CCN1C(=O)c2cc(F)c(F)cc2N(c2cccc(F)c2)C31 (stereo unspecified) | > 6 µM | – | 6.98 µM | 10.8 µM | 7.14 µM | – | 7.69 µM | 7.21 µM | – |
| CCOc1ccc2[nH]c3c(c2c1)CCN1C(=O)c2cc(F)cc(F)c2N(c2cccc(F)c2)C31 (stereo unspecified) | 1.8 µM | 66.7% | 0.85 µM | 0.89 µM | 0.92 µM | 48.3% | 0.6 µM | 1.34 µM | 50.8% |
| COc1ccc2[nH]c3c(c2c1)CCN1C(=O)c2cc(F)ccc2N(c2cc(F)ccc2OC)C31 (stereo unspecified) | > 6 µM | – | > 18 µM | > 18 µM | > 18 µM | – | > 18 µM | > 18 µM | – |
| COc1ccc2[nH]c3c(c2c1)CCN1C(=O)c2cc(F)ccc2N(c2ccc(Br)c(F)c2)C31 (stereo unspecified) | > 6 µM | – | 15.9 µM | > 18 µM | > 18 µM | – | > 18 µM | > 18 µM | – |
